Tested on: adiponectin promoter
Test: cells
Assay type: cell-based, human
Conditions: for concentration at which the greatest transactivation was achieved: dose-response curve of commercial activator on the target promoter
Source text: The following protocol has been followed for the purpose of analyzing the potential therapeutic activity against obesity, type 2 diabetes mellitus and atherosclerosis (ODA metabolic diseases) of the compounds 1-4: • generating cell lines which have stably integrated human promoters of key genes in the development of ODA diseases; • amplifying the human promoter sequence of the target genes starting from commercial human genomic DNA; • cloning the promoter into a suitable vector which allows knowing the transcriptional activity of the promoter sequence, using the luciferase gene as a reporter gene; • generating stable cell lines for each of the promoters cloned into the reporter vectors; • carrying out the screening test with the compounds of the invention on the stable cell lines; • suitably validating the effect obtained with a certain compound which can modify the transcriptional activity of the promoter.
The selected cell line is C2C12, corresponding to myoblasts from mouse muscle tissue.
The luciferase activity is measured according to the following protocol: • a) 50000 and 1200000 cells/well (and in duplicate) are seeded in a P24 plate. • b) After approximately 24 hours, the medium is removed from the cells and each well is washed with PBS 1x (because DMEM interferes in the measurement of the activity of the reporter gene) • c) 100 µl of luciferase developing reagent are added in each cell (Bright-GloTM Luciferase Assay system- Promega). This reagent carries the reporter gene substrate and luminescence is generated as the product of the enzymatic reaction. The cells which have acquired the reporter gene, and therefore the target promoter, will be luminescent upon being in the presence of said substrate. To record the measurement of luciferase activity, the plate is shaken for 30 seconds right after adding the developing reagent and after 2 minutes, the volume is collected and transferred to a 96-well plate (P96), which can be read in an illuminometer. • d) The suitable luminescence program is selected, such that the reading lasts 5 seconds per well, and the arbitrary luminescence units are recorded for each obtained clone or, in other words, for each stable cell line.
The reaction substrate is photosensitive, therefore it is important to keep the plate in darkness from the time the reagent is added until the luciferase activity is recorded or read in each experiment. Carrying out the screening test: The clones used in the screening are: C2C12 Adipo (adiponectin promoter), C2C12 UCP3 (UCP3 promoter), C2C12 AdR1 (adiponectin receptor 1 promoter) and C2C12 Nmu (neuromedin promoter).
Before any screening experiment, the suitable number of cells for carrying out such experiments must first be provided. To that end, 2 T75 are usually seeded (with approximately 1x10^6 cells in each bottle), such that after four days, the cells have reached confluence and are ready for the screening protocol detailed below to be carried out. • 1. Day 1: 30000 cells per well are seeded in white P96 plates; these plates allow amplifying the luminescence signal and improving the reading. The cells are grown in 100 µl of hygromycin-free medium. • 2. Day 2: 24 hours after the seeding, the cells are stimulated with compounds 1-4. Compounds 1-4 are assayed in duplicate at 1, 5 and 10 µg/ml concentrations, by means of the screening method shown in the following diagram: [formula] ? In the indicated positions, the baseline transcriptional activity of the promoters to be studied is recorded in the presence of the medium in which compounds 1-4 (vehicle) are dissolved. ? In the indicated positions, the transcriptional activity of the promoters to be studied is recorded in the presence of a known commercial activator of the target promoter. […]

[1] = Mus musculus, C2C12, 48 h, read-out: activation ratio

For `O=c1c(-c2ccc(O)cc2)coc2cc(O)cc(O)c12` [Genistein, genistein, reference compound], the fold induction at 1 µM [1] was 1.47, the fold induction at 5 µM [1] was 2.25 and the fold induction at 10 µM [1] was 3.59. It also gave a fold induction at 20 µM [1] of 3.05, a fold induction at 50 µM [1] of 1.97 and a fold induction at 100 µM [1] of 1.75. The fold induction at 200 µM [1] was 1.59 and the “concentration at which the greatest transactivation was achieved” value (from here on “concentration”) was 20 µM.

`CC(C)=CCNc1cccc(C(=O)O)c1` [Compound 2, 3-(3-methyl-but-2-enylamino)-benzoic acid] showed a fold induction at 0.01 µM [1] of 1.05, a fold induction at 1 µM [1] of 1.69 and a fold induction at 5 µM [1] of 2.78. For the same compound, the fold induction at 15 µM [1] was 3.43, the fold induction at 25 µM [1] was 3.57 and the fold induction at 50 µM [1] was 3.66. It also gave a fold induction at 200 µM [1] of 3.04 and a fold induction at 400 µM [1] of 1.81.

Work on `COC(=O)c1cccc(NCC=C(C)C)c1` [Compound 3, 3-(3-methyl-but-2-enylamino)-benzoic acid methyl ester] yielded a fold induction at 0.5 µM [1] of 1.07, a fold induction at 1 µM [1] of 1.26 and a fold induction at 5 µM [1] of 1.98. For the same compound, the fold induction at 10 µM [1] was 1.85, the fold induction at 25 µM [1] was 2.46 and the fold induction at 50 µM [1] was 2.61. For the same compound, the fold induction at 100 µM [1] was 2.34 and the fold induction at 200 µM [1] was 1.92.

Work on `COC(=O)c1cccc(NCC=C(C)CCC=C(C)C)c1` [Compound 4, 3-(3,7-dimethyl-octa-2,6-dienylamino)-benzoic acid methyl ester] yielded a fold induction at 0.5 µM [1] of 2.32, a fold induction at 1 µM [1] of 2.59 and a fold induction at 5 µM [1] of 3.53. For the same compound, the fold induction at 10 µM [1] was 3.71, the fold induction at 25 µM [1] was 3.47 and the fold induction at 50 µM [1] was 3.28. It also gave a fold induction at 100 µM [1] of 2.53 and a fold induction at 200 µM [1] of 1.78.

Compound `O=c1c(-c2ccc(O)cc2)coc2cc(O)ccc12` [Daidzein, daidzein, reference compound] has a fold induction at 1 µM [1] of 1.68, a fold induction at 5 µM [1] of 3.03 and a fold induction at 10 µM [1] of 3.76. It also gave a fold induction at 20 µM [1] of 4.04, a fold induction at 50 µM [1] of 4.05 and a fold induction at 100 µM [1] of 3.71. For the same compound, the “concentration” value was 20 µM.

In the case of `CN(CCOc1ccc(CC2SC(=O)NC2=O)cc1)c1ccccn1` (stereo not drawn) [Rosiglitazone, reference compound], the “concentration” value is reported as 20 µM.

For `COC(=O)c1ccnc(NCC=C(C)CCC=C(C)C)c1` [Compound 1, 2-(3,7-dimethyl-octa-2,6-dienylamino)-isonicotinic acid methyl ester], the fold induction at 0.5 µM [1] was 1.67, the fold induction at 1 µM [1] was 2.02 and the fold induction at 5 µM [1] was 3.33. It also gave a fold induction at 10 µM [1] of 4.07, a fold induction at 25 µM [1] of 4.05 and a fold induction at 50 µM [1] of 3.92. The fold induction at 100 µM [1] was 3.06 and the fold induction at 200 µM [1] was 2.57.
